Patent publication US10479795B2 (Incyte Corporation, priority 2016, dated 2019)
pIC50: −log10 of the molar value. Where a name gives a salt, the structure may show the parent alone. Read-outs that look alike come from different tables or passages of the source.

What was measured:
[1] = test system: Phosphorylated Ribosomal Protein S6 (RPS6); test: THP-1 RPS6 ELISA Assay; type: cell-based, Human; details: THP-1 cells, read-out: PI3Kγ_THP1_RPS6_ELISA IC50
Outline: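 Serum-starved THP-1 cells were preincubated with a concentration range of compound for 2 h at 37 °C, then stimulated with 10 nM MCP-1 for 15 min. Phospho-RPS6 in lysates was quantified by ELISA at 450 nm. IC50 came from percent inhibition versus log inhibitor concentration.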

[2] = molecular target: PI3Kγ (p110γ) Recombinant Human Protein (Homo sapiens (Human), UniProt P48736); test: PI3K-γ Scintillation Proximity Assay; type: biochemical; details: read-out: PI3Kγ IC50
Outline: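 Recombinant human p110γ assayed at room temperature in 20 mM MOPS pH 6.7, 10 mM MgCl2, 5 mM DTT, 0.03% CHAPS, 2% DMSO, with 20 μM PIP2 and 2 μM ATP plus [γ-33P]ATP. Product captured on WGA SPA beads overnight and counted; IC50 fitted from % of solvent-control activity versus log inhibitor concentration.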

[3] = molecular target: PI3Kδ (p110δ/p85α) Recombinant Human Protein (Homo sapiens (Human), UniProt O00329); test: PI3Kδ Scintillation Proximity Assay; type: biochemical
Outline: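 Kinase reaction run at room temperature in 20 mM MOPS pH 6.7, 10 mM MgCl2, 5 mM DTT, 0.03% CHAPS with 20 μM PIP2, 2 μM ATP plus [γ-33P]ATP, 3.4 nM enzyme, 2% DMSO; 120 min. Quenched with WGA SPA beads/EDTA, counted by scintillation; IC50 from % solvent-control activity vs log concentration.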

Chain of PI3Kδ (p110δ/p85α) Recombinant Human Protein (O00329 whole entry): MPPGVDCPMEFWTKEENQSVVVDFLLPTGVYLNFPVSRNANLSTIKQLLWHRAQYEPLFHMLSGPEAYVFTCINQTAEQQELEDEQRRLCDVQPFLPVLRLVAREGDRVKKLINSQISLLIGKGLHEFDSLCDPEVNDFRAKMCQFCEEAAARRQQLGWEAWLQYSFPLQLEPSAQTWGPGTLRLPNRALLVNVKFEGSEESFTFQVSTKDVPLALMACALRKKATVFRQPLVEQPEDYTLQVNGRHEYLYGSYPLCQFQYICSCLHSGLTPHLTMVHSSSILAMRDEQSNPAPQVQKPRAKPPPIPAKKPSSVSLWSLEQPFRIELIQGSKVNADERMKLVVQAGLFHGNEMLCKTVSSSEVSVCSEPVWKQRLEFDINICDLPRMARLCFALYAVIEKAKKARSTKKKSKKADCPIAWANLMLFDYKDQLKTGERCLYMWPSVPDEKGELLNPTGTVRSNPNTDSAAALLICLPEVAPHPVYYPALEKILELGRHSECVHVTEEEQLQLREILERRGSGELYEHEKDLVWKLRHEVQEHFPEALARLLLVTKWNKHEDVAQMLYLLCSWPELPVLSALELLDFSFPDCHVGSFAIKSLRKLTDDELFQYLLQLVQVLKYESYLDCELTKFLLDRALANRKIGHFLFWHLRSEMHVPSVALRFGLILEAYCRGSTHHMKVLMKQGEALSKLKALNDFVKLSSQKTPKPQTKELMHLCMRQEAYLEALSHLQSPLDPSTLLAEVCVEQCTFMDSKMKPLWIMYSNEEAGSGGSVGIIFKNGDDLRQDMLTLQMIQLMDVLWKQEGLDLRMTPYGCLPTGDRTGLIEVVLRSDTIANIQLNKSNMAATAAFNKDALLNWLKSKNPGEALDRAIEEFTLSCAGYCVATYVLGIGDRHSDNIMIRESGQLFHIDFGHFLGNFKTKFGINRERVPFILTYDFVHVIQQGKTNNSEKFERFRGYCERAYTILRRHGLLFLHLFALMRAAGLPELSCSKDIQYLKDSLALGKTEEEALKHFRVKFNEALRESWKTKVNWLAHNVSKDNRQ
Chain of PI3Kδ (p110δ/p85α) Recombinant Human Protein (P27986 whole entry partner): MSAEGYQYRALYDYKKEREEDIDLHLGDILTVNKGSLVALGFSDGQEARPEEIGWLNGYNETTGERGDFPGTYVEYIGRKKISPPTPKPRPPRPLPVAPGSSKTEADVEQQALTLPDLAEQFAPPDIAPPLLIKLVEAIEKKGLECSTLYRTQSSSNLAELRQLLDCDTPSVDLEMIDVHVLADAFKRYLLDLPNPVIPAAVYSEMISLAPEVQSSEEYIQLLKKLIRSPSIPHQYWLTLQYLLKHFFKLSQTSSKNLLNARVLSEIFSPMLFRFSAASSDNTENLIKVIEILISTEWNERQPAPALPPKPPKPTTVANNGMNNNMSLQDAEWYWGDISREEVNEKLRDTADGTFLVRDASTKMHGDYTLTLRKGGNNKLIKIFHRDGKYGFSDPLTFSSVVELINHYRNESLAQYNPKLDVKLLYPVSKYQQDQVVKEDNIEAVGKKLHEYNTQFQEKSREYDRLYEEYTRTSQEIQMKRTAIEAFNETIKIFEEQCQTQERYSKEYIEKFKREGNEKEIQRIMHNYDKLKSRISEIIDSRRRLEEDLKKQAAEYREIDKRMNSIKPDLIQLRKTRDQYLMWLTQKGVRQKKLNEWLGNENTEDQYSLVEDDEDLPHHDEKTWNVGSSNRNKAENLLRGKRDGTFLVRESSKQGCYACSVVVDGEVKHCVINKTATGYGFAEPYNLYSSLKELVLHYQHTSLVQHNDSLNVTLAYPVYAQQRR
Chain of PI3Kγ (p110γ) Recombinant Human Protein (P48736 whole entry): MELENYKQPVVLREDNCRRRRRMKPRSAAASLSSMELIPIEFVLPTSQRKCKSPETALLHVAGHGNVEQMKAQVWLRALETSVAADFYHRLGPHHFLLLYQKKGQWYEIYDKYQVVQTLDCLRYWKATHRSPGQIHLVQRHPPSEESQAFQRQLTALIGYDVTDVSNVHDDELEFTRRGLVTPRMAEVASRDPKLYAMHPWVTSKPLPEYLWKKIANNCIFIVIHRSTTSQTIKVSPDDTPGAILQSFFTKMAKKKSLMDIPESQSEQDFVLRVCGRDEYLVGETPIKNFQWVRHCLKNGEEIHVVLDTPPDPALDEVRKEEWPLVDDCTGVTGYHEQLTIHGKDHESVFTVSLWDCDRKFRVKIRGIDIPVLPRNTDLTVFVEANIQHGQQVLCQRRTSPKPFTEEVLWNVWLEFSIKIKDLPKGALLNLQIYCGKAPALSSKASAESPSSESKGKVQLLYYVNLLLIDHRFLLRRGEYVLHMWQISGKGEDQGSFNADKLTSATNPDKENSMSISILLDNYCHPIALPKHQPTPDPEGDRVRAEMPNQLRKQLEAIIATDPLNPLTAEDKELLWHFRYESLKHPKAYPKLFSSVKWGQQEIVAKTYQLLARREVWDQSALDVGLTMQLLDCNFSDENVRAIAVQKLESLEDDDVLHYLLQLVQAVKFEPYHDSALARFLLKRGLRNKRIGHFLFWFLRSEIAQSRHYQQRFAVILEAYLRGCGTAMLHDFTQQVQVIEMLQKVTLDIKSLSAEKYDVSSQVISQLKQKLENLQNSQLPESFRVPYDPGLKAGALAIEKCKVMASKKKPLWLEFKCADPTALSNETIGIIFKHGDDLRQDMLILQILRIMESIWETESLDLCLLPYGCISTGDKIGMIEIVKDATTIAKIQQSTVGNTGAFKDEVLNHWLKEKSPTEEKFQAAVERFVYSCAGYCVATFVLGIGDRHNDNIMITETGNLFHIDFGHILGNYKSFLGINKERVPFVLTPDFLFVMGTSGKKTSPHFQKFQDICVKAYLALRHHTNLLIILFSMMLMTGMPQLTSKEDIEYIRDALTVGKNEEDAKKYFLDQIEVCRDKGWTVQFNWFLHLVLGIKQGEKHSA

Structure (SMILES)	pIC50 ([1]; Homo sapiens)	pIC50 [2]	pIC50 [3]	pIC50 [1]
Cc1ccc(S(=O)(=O)N[C@H]2CC[C@H](O)CC2)cc1-c1cnc2c(N)nc(-c3ccccc3)cn12 [Example 23, 3-[8-Amino-6-phenylimidazo[1,2-a]pyrazin-3-yl]-N-(trans-4-hydroxycyclohexyl)-4-methylbenzenesulfonamide]	> 7.00	> 7.00	> 7.00	
Cc1ccc(S(=O)(=O)N[C@H]2CC[C@H](O)CC2)cc1-c1cnc2c(N)nc(-c3ccc(F)cc3)cn12 [Example 20, 3-[8-Amino-6-(4-fluorophenyl)imidazo[1,2-a]pyrazin-3-yl]-N-(trans-4-hydroxycyclohexyl)-4-methylbenzenesulfonamide]	> 7.00	> 7.00	> 7.00	
Cc1ccc(S(=O)(=O)NC2CCC(C)(O)CC2)cc1-c1cnc2c(N)nccn12 (stereo not drawn) [Example 85, 3-(8-aminoimidazo[1,2-a]pyrazin-3-yl)-N-(trans-4-hydroxy-4-methylcyclohexyl)-4-methylbenzenesulfonamide]		> 7.00	5.70 to 6.30	6.30 to 7.00
Nc1nc(C(F)(F)F)nn2c(-c3ccc(F)c(S(=O)(=O)NC45CCC(CO)(C4)C5)c3)cnc12 [Example 418, 5-(4-Amino-2-(trifluoromethyl)imidazo[1,2-f][1,2,4]triazin-7-yl)-2-fluoro-N-(4-(hydroxymethyl)bicyclo[2.1.1]hexan-1-yl)benzenesulfonamide]		> 7.00	6.30 to 7.00	< 6.00
Cc1ccc(S(=O)(=O)N2CC(CO)C2)cc1-c1cnc2c(N)ncnn12 [Example 128, (1-((3-(4-aminoimidazo[2,1-f][1,2,4]triazin-7-yl)-4-methylphenyl)sulfonyl)azetidin-3-yl)methanol]	6.30 to 7.00	> 7.00	6.30 to 7.00	
Cc1ccc(S(=O)(=O)N[C@H]2CC[C@H](O)CC2)cc1-c1cnc2c(N)nc(-c3cccnc3)cn12 [Example 26, 3-(8-Amino-6-pyridin-3-ylimidazo[1,2-a]pyrazin-3-yl)-N-(trans-4-hydroxycyclohexyl)-4-methylbenzenesulfonamide]	6.30 to 7.00	> 7.00	> 7.00	
Cc1ccc(S(=O)(=O)NC23CC(c4nnn[nH]4)(C2)C3)cc1-c1cnc2c(N)ncnn12 [Example 99, N-(3-(1H-tetrazol-5-yl)bicyclo[1.1.1]pentan-1-yl)-3-(4-aminoimidazo[1,2-f][1,2,4]triazin-7-yl)-4-methylbenzenesulfonamide trifluoroacetate salt]		> 7.00	5.70 to 6.30	< 6.00
CC(=O)C12CC(NS(=O)(=O)c3ccc(C)c(-c4cnc5c(N)ncnn45)c3)(C1)C2 [Example 95, N-(3-Acetylbicyclo[1.1.1]pentan-1-yl)-3-(4-aminoimidazo[1,2-f][1,2,4]triazin-7-yl)-4-methylbenzenesulfonamide trifluoroacetate salt]		> 7.00	6.30 to 7.00	6.30 to 7.00
CC(=O)N[C@H]1CC[C@H](NS(=O)(=O)c2ccc(C)c(-c3cnc4c(N)ncnn34)c2)CC1 [Example 74, N-[trans-4-({[3-(4-Aminoimidazo[2,1-f][1,2,4]triazin-7-yl)-4-methylphenyl]sulfonyl}amino)cyclohexyl]acetamide]	< 6.00	> 7.00	5.70 to 6.30	
Cc1ccc(S(=O)(=O)N[C@H]2CC[C@](O)(C(F)(F)F)CC2)cc1-c1cnc2c(N)ncnn12 [Example 124, 3-(4-aminoimidazo[2,1-f][1,2,4]triazin-7-yl)-N-[cis-4-hydroxy-4-(trifluoromethyl)cyclohexyl]-4-methylbenzenesulfonamide]		> 7.00	6.30 to 7.00	6.30 to 7.00
CC(=O)N[C@H]1CC[C@H](NS(=O)(=O)c2ccc(C)c(-c3cnc4c(N)nccn34)c2)CC1 [Example 59, N-[trans-4-({[3-(8-Aminoimidazo[1,2-a]pyrazin-3-yl)-4-methylphenyl]sulfonyl}amino)cyclohexyl]acetamide]	< 6.00	> 7.00	5.70 to 6.30	
Cc1nc(N)c2ncc(-c3cc(S(=O)(=O)NCC(O)C(F)(F)F)ccc3C)n2n1 (single isomer, unassigned) [Example 267, 3-(4-Amino-2-methylimidazo[1,2-f][1,2,4]triazin-7-yl)-4-methyl-N-(3,3,3-trifluoro-2-hydroxypropyl)benzenesulfonamide (single enantiomer isolated)]		> 7.00	6.30 to 7.00	6.30 to 7.00

More lines, now with the values ahead:

pIC50 ([1]; Homo sapiens)	pIC50 [2]	pIC50 [3]	pIC50 [1]	Structure (SMILES)
	> 7.00	6.30 to 7.00	> 7.00	Cc1ccc(S(=O)(=O)NC23CCC(CO)(C2)C3)cc1-c1cnc2c(N)nc(C(F)(F)F)nn12 [Example 328, 3-(4-Amino-2-(trifluoromethyl)imidazo[1,2-f][1,2,4]triazin-7-yl)-N-(4-(hydroxymethyl)bicyclo[2.1.1]hexan-1-yl)-4-methylbenzenesulfonamide trifluoroacetate salt]
> 7.00	> 7.00	6.30 to 7.00		Cc1ccc(S(=O)(=O)NC23CC(C#N)(C2)C3)cc1-c1cnc2c(N)nc(C(F)(F)F)cn12 [Example 287, 3-(8-Amino-6-(trifluoromethyl)imidazo[1,2-a]pyrazin-3-yl)-N-(3-cyanobicyclo[1.1.1]pentan-1-yl)-4-methylbenzenesulfonamide]
< 6.00	> 7.00	6.30 to 7.00		Cc1ccc(S(=O)(=O)N(CCC#N)C2CC2)cc1-c1cnc2c(N)nc(C(F)(F)F)nn12 [Example 345, 3-(4-amino-2-(trifluoromethyl)imidazo[2,1-f][1,2,4]triazin-7-yl)-N-(2-cyanoethyl)-N-cyclopropyl-4-methylbenzenesulfonamide]
6.30 to 7.00	> 7.00	6.30 to 7.00		Cc1cn2c(-c3cc(S(=O)(=O)NC45CCC(C#N)(C4)C5)ccc3C)cnc2c(N)n1 [Example 263, 3-(8-Amino-6-methylimidazo[1,2-a]pyrazin-3-yl)-N-(4-cyanobicyclo[2.1.1]hexan-1-yl)-4-methylbenzenesulfonamide trifluoroacetate salt]
< 6.00	> 7.00	5.70 to 6.30		Cc1ncc(S(=O)(=O)NC23CCC(C#N)(C2)C3)cc1-c1cnc2c(N)nc(C(F)(F)F)cn12 [Example 257, 5-(8-amino-6-(trifluoromethyl)imidazo[1,2-a]pyrazin-3-yl)-N-(4-cyanobicyclo[2.1.1]hexan-1-yl)-6-methylpyridine-3-sulfonamide]
< 6.00	6.30 to 7.00	> 7.00		Cc1ccc(S(=O)(=O)NCC(C)(C)O)cc1-c1cnc2c(NCc3ccccc3)nc(C(F)(F)F)cn12 [Example 519, 3-(8-(Benzylamino)-6-(trifluoromethyl)imidazo[1,2-a]pyrazin-3-yl)-N-(2-hydroxy-2-methylpropyl)-4-methylbenzenesulfonamide]
6.00 to 6.30	> 7.00	5.70 to 6.30		CNC(=O)c1cn2c(-c3cc(S(=O)(=O)NC4CC(F)(F)C4)ccc3C)cnc2c(N)n1 [Example 447, 8-Amino-3-(5-(N-(3,3-difluorocyclobutyl)sulfamoyl)-2-methylphenyl)-N-methylimidazo[1,2-a]pyrazine-6-carboxamide trifluoroacetate salt]
6.00 to 6.30	> 7.00	6.30 to 7.00		[2H][C@]1(NS(=O)(=O)c2ccc(C)c(-c3cnc4c(N)ncnn34)c2)CC[C@@](C)(O)CC1 [Example 507, 3-(4-Aminoimidazo[2,1-f][1,2,4]triazin-7-yl)-N-((1s,4s)-4-hydroxy-4-methylcyclohexyl-1-d)-4-methylbenzenesulfonamide]
6.30 to 7.00	> 7.00	6.30 to 7.00		Cc1ccc(S(=O)(=O)N[C@H]2CC[C@](C)(O)CC2)cc1-c1cnc2c(N)ncnn12 [Example 463, 3-(4-Aminoimidazo[2,1-f][1,2,4]triazin-7-yl)-N-((1r,4r)-4-hydroxy-4-methylcyclohexyl)-4-methylbenzenesulfonamide]
> 7.00	> 7.00	6.30 to 7.00		Cc1ccc(S(=O)(=O)NC23CC(CC#N)(C2)C3)cc1-c1cnc2c(N)nc(C(F)(F)F)cn12 [Example 276, 3-(8-Amino-6-(trifluoromethyl)imidazo[1,2-a]pyrazin-3-yl)-N-(3-(cyanomethyl)bicyclo[1.1.1]pentan-1-yl)-4-methylbenzenesulfonamide trifluoroacetate salt]
6.30 to 7.00	6.30 to 7.00	5.70 to 6.30		Cc1ccc(S(=O)(=O)N[C@H]2CC[C@](C)(O)CC2)cc1-c1cnc2c(N)ccnn12 [Example 518, 3-(8-Aminoimidazo[1,2-b]pyridazin-3-yl)-N-((1r,4r)-4-hydroxy-4-methylcyclohexyl)-4-methylbenzenesulfonamide]
6.00 to 6.30	> 7.00	6.30 to 7.00		Cc1ccc(S(=O)(=O)NC2(C#N)CCC2)cc1-c1cnc2c(N)ncnn12 [Example 192, 3-(4-aminoimidazo[2,1-f][1,2,4]triazin-7-yl)-N-(1-cyanocyclobutyl)-4-methylbenzenesulfonamide trifluoroacetate]
